This note sets out measurements from ChEMBL document CHEMBL1201862, “PubChem BioAssay data set” (2004).

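Exposure lasted 48 hours, with cells grown in 96-well plates and compounds tested at five concentrations. GI50: concentration for 50% inhibition of growth.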 Active and inactive are the calls of the source. Rule as the data show it: active = GI50 up to about 1.1 µM and inactive = higher. A value given as a limit tells only on which side of the number the result lay.

Among the test systems are OVCAR-5; MCF7; PC-3; SK-OV-3; MDA-MB-435; UO-31; T47D; ACHN; SW-620; IGROV-1; TK-10; Hs-578T; OVCAR-4; A549; 786-0; LOX IMVI; CCRF-CEM; SF-539.
Holding throughout (assay): NCI tumour cell line growth inhibition, 48 h

Take `COc1ccc2[nH]c3cc4c(=O)c5cc(OC)ccc5[nH]c4cc3c(=O)c2c1`: the GI50 is > 100 µM (inactive) with OVCAR-5; > 100 µM (inactive) with MCF7; > 100 µM (inactive) with PC-3; > 100 µM (inactive) in the experiment with SK-OV-3; > 100 µM (inactive) with MDA-MB-435; 97.5 µM (inactive) with UO-31. In addition, the GI50 in the experiment on T47D, with ACHN, with SW-620, with IGROV-1, in the experiment with TK-10 and in the experiment on Hs-578T was > 100 µM (inactive) each time. Further, the figures for the GI50 in the experiment on OVCAR-4, in the experiment on A549 and in the experiment with 786-0 were > 100 µM (inactive), > 100 µM (inactive) and 99.1 µM (inactive), respectively.
As to `CC1=C[C@H](O)[C@@]2(C)[C@@H]([C@@H]1C)[C@H]1CC[C@@H]3[C@@]4(C)CC[C@H](O)C(C)(C)[C@@H]4CC[C@@]3(C)[C@]1(C)C[C@@H]2O`, the GI50 with OVCAR-5 is 15.6 µM (inactive); in the experiment with LOX IMVI, 21.5 µM (inactive); with PC-3, 20.6 µM (inactive); with SK-OV-3 it was 18.4 µM (inactive); in the experiment with MDA-MB-435, 20.7 µM (inactive); in the experiment on UO-31 it was 18.6 µM (inactive). Moreover, the GI50 was 14.3 µM (inactive) in the experiment on T47D; 22.1 µM (inactive) with SW-620; 20.5 µM (inactive) in the experiment with IGROV-1; 22.2 µM (inactive) in the experiment on TK-10; 22.3 µM (inactive) in the experiment on Hs-578T; 16.9 µM (inactive) in the experiment on CCRF-CEM. Also, the GI50 with OVCAR-4 is 17.9 µM (inactive); in the experiment on A549 it was 12.8 µM (inactive); with 786-0, 14 µM (inactive).
In the case of `O=c1cc(NNc2ccc(F)cc2)[nH]c(=O)[nH]1`, the GI50 in the experiment with OVCAR-5 is 19.2 µM (inactive); with LOX IMVI, > 100 µM (inactive); in the experiment with PC-3 it was 16.6 µM (inactive); in the experiment on SK-OV-3 it was 39.1 µM (inactive); with UO-31 it was 17.9 µM (inactive); with T47D, 27 µM (inactive). In addition, the GI50 was 21.5 µM (inactive) in the experiment on SF-539; 17.9 µM (inactive) in the experiment on ACHN; 17.5 µM (inactive) in the experiment on SW-620; 16.6 µM (inactive) in the experiment with IGROV-1; 22 µM (inactive) with TK-10; 28.4 µM (inactive) with Hs-578T. Besides, the GI50 with CCRF-CEM is 12.9 µM (inactive); in the experiment with OVCAR-4, 9.68 µM (inactive); in the experiment on A549, 18.3 µM (inactive); in the experiment on 786-0, 12.5 µM (inactive).
Regarding `COI1NC(=O)c2ccccc21`, the GI50 in the experiment on OVCAR-5, with LOX IMVI, in the experiment on MCF7, with PC-3, in the experiment on SK-OV-3 and in the experiment on MDA-MB-435 was > 100 µM (inactive) throughout. For the same compound, the GI50 with UO-31, with ACHN, in the experiment on SW-620, with IGROV-1, with TK-10 and in the experiment with Hs-578T was > 100 µM (inactive) throughout. Moreover, the GI50 is 60.4 µM (inactive) in the experiment on CCRF-CEM, > 100 µM (inactive) with OVCAR-4, > 100 µM (inactive) in the experiment with A549 and > 100 µM (inactive) with 786-0.
`C1C2CC3CC1CC(c1nn4c(C56CC7CC(CC(C7)C5)C6)nnc4s1)(C2)C3`: the GI50 in the experiment with OVCAR-5, in the experiment with LOX IMVI, in the experiment on PC-3, with SK-OV-3, in the experiment on MDA-MB-435 and with UO-31 was > 100 µM (inactive) each time. In addition, the GI50 in the experiment with T47D, in the experiment on SF-539, with ACHN, with SW-620, with IGROV-1 and with TK-10 was > 100 µM (inactive) in each case. In addition, the GI50 in the experiment with Hs-578T, with CCRF-CEM, with OVCAR-4, with A549 and in the experiment on 786-0 was > 100 µM (inactive) throughout.
Consider `OC(CN1CCCCC1)c1ccc(/C=C/c2ccc(Cl)cc2)cc1` (centres undefined), for which the GI50 in the experiment with OVCAR-5 is 31.8 µM (inactive); in the experiment on MCF7, > 100 µM (inactive); with PC-3, 90.6 µM (inactive); in the experiment with SK-OV-3 it was > 100 µM (inactive); in the experiment on MDA-MB-435, 54.3 µM (inactive); in the experiment with UO-31, 50.4 µM (inactive). Further, the GI50 in the experiment with T47D was > 100 µM (inactive); in the experiment on SF-539, 43.6 µM (inactive); with ACHN it was > 100 µM (inactive); in the experiment on SW-620 it was 46.9 µM (inactive); in the experiment on IGROV-1 it was 26.2 µM (inactive); in the experiment on TK-10 it was > 100 µM (inactive). In addition, the GI50 is 50.1 µM (inactive) with Hs-578T; 70.5 µM (inactive) in the experiment on CCRF-CEM; 83.6 µM (inactive) in the experiment with OVCAR-4; > 100 µM (inactive) with A549; 56.5 µM (inactive) in the experiment with 786-0.
With `CCOC(=O)/C(C#N)=C/c1ccc(SCc2ccco2)c([N+](=O)[O-])c1`, the GI50 with OVCAR-5, in the experiment with LOX IMVI, with MCF7, with PC-3, in the experiment on SK-OV-3 and in the experiment on MDA-MB-435 was > 100 µM (inactive) throughout. For the same compound, the GI50 is > 100 µM (inactive) in the experiment with UO-31; 56.8 µM (inactive) with SF-539; > 100 µM (inactive) with ACHN; > 100 µM (inactive) with SW-620; > 100 µM (inactive) in the experiment on IGROV-1; > 100 µM (inactive) in the experiment on Hs-578T. Also, the GI50 with CCRF-CEM, in the experiment on OVCAR-4, in the experiment with A549 and in the experiment on 786-0 was > 100 µM (inactive) in each case.
On to `COc1cccc(N(CN2C(=O)CCC2C(=O)O)C(C)=O)c1` (centres undefined), for which the GI50 with OVCAR-5, with LOX IMVI, with MCF7, with PC-3, with SK-OV-3 and in the experiment with MDA-MB-435 was > 100 µM (inactive) each time. The GI50 with UO-31, in the experiment with T47D, with SF-539, in the experiment with ACHN, with SW-620 and in the experiment on IGROV-1 was > 100 µM (inactive) throughout. Further, the GI50 with TK-10, with Hs-578T, in the experiment on OVCAR-4, in the experiment with A549 and in the experiment on 786-0 was > 100 µM (inactive) in each case.
On to `Oc1ccc2cc(Br)ccc2c1-c1c(O)ccc2ccc(Br)cc12`, for which the GI50 was 16.9 µM (inactive) in the experiment on OVCAR-5; 13 µM (inactive) in the experiment on MCF7; 12.6 µM (inactive) in the experiment with PC-3; 12.2 µM (inactive) in the experiment with SK-OV-3; 16.2 µM (inactive) in the experiment on MDA-MB-435; 15.3 µM (inactive) in the experiment on UO-31. The GI50 in the experiment on T47D was 12.7 µM (inactive); in the experiment with SF-539 it was 18.5 µM (inactive); with ACHN it was 14.8 µM (inactive); in the experiment with SW-620, 11.7 µM (inactive); with IGROV-1, 8.3 µM (inactive); in the experiment on TK-10, 16.7 µM (inactive). Besides, the GI50 is 11.9 µM (inactive) with Hs-578T, 13 µM (inactive) with CCRF-CEM, 15.2 µM (inactive) with A549 and 13.8 µM (inactive) in the experiment with 786-0.
For the compound `CCOc1c2c(cc3c1C(=O)c1c(OC)cccc1C3=O)C=C(OC)CC2`, the GI50 in the experiment on OVCAR-5 is > 25 µM (inactive); in the experiment with LOX IMVI, 16.8 µM (inactive); in the experiment with MCF7, 24.4 µM (inactive); in the experiment on PC-3, 17.8 µM (inactive); in the experiment on SK-OV-3, > 25 µM (inactive); with MDA-MB-435 it was 8.04 µM (inactive). Moreover, the GI50 with UO-31 is 10.9 µM (inactive); in the experiment with SF-539 it was > 25 µM (inactive); in the experiment on ACHN it was > 25 µM (inactive); with SW-620 it was 9.98 µM (inactive); in the experiment with IGROV-1, 15.2 µM (inactive); in the experiment on TK-10, > 25 µM (inactive). Moreover, the GI50 is > 25 µM (inactive) in the experiment on Hs-578T; 7.8 µM (inactive) in the experiment with CCRF-CEM; > 25 µM (inactive) with OVCAR-4; 13.5 µM (inactive) in the experiment on A549; > 25 µM (inactive) in the experiment with 786-0.
In the case of `CC#CS(=O)(=O)c1ccccc1`, the GI50 in the experiment on OVCAR-5 is 5.58 µM (inactive); in the experiment on LOX IMVI it was 5.45 µM (inactive); in the experiment with MCF7 it was 6.87 µM (inactive); in the experiment with PC-3 it was 12.1 µM (inactive); in the experiment on SK-OV-3 it was 17.3 µM (inactive); in the experiment on MDA-MB-435, 10.9 µM (inactive). The GI50 in the experiment with UO-31 is 1.86 µM (inactive); in the experiment with T47D, 2.33 µM (inactive); in the experiment with SF-539, 4.08 µM (inactive); with ACHN, 3.57 µM (inactive); in the experiment with SW-620 it was 3.78 µM (inactive); in the experiment with IGROV-1, 11.9 µM (inactive). Moreover, the GI50 was 4.92 µM (inactive) in the experiment with TK-10; 17.2 µM (inactive) in the experiment on Hs-578T; 3.19 µM (inactive) in the experiment on OVCAR-4; 16.1 µM (inactive) with A549; 3.43 µM (inactive) in the experiment on 786-0.
For `O=c1[nH]nc(-c2ccccc2)c2[nH]c3c4ccccc4ccc3c12`, the GI50 in the experiment on MCF7 was 0.331 µM (active); in the experiment on PC-3, 1.28 µM (inactive); with SK-OV-3, 2.61 µM (inactive); with MDA-MB-435, 0.193 µM (active); in the experiment on T47D, 5.4 µM (inactive); in the experiment with SF-539, 0.964 µM (active). The GI50 was 1.69 µM (inactive) with ACHN; 0.656 µM (active) in the experiment with SW-620; 4.24 µM (inactive) with IGROV-1; 2.17 µM (inactive) in the experiment on TK-10; 1.79 µM (inactive) in the experiment with Hs-578T; 1.56 µM (inactive) with CCRF-CEM. For the same compound, the GI50 is 1.76 µM (inactive) in the experiment with OVCAR-4, 1.31 µM (inactive) in the experiment with A549 and 2.1 µM (inactive) in the experiment on 786-0.
